Results: patent publication US9315532B2, “Fatty acid carbohydrate hybrid molecules as therapeutic agents and methods thereof” (The Johns Hopkins University, priority 2005, dated 2016)
“Also recorded” adds a separate entry of the source.

Key:
Format in all cases: cell-based, human
p21WAF1 = assay: Endogenous p21WAF1 assay (anti-p21WAF1 antibody, flow cytometry) in Jurkat cells
Method: Endogenous expression of p21^WAF1 was detected following a reported procedure (58) with minor modifications. Jurkat cells (5.0×10^6 cells in 10 mL medium) were incubated with either ethanol or 1 (250 μM or 5 (2.5 mM). On a daily basis, aliquots of cells (˜1.0×10^6 per sample) were taken, washed with PBS (2×1.0 mL), fixed with Reagent A (Fix and Perm Kit, Caltag Laboratories, CA, Cat. No. GAS-003) for 10 min at room temperature, washed with washing buffer (PBS containing 5.0% FBS, 0.1% NaN3), re-suspended in 95% v/v methanol and kept on ice. After 30 min, cells were again washed with washing buffer and incubated with FITC-conjugated anti-p21^WAF1 antibody (Calbiochem, San Diego, Calif., Cat. No. OP64F) at 2.0 μg/mL in Reagent B (100 μL) (Fix and Perm Kit, Caltag Laboratories) for 1.0 h at room temperature in the dark. Finally, cells were re-suspended in washing buffer (500 μL) and analyzed by flow cytometry. Three replicate samples were taken for each condition and 10,000 events were counted for each sample.

HeLa cells = assay: Morphological changes to HeLa cells
Method: (§1) The studies on morphological changes induced by sodium butyrate (5) and But4ManNAc (1) were performed following a reported procedure (45). Briefly, HeLa cells (200,000 cells per well in a 6-well plate) were plated and allowed to form monolayers. After 24 h, the supernatant was aspirated, fresh medium (4.0 mL) was added and treated with either ethanol (20 μL (0.5%), control), 5 (5.0 mM), or 1 (250 μM). For the AD 293 (HEK) cells 2.0×10^6 cells in 10 mL of medium (100 mm tissue culture dishes) were plated and treated, immediately after plating, with either ethanol (50 μL, control), 5 (5.0 mM), or 1 (250 μM). Images were acquired at various time intervals under bright field using a Nikon Eclipse TE200 inverted microscope equipped with a DXM 1200 digital camera.

AD293 (HEK) cells = assay: Morphological changes / toxicity in AD293 (HEK) cells
Method: as §1

Jurkat cells = assay: Cell viability assay (trypan blue exclusion); details: 200 μM
Method: Jurkat cells (2.0×10^5 cells/mL) were seeded with 1-4 at 200 μM in 6-well T. C. plates. Aliquots of cell suspension (20 μL) were removed on a daily basis diluted with either PBS (20 μL) or trypan blue solution (20 μL) and cell viability was determined by using the standard trypan blue exclusion method; three replicate counts were taken for each condition.

CCCC(=O)OC[C@H]1OC(OC(=O)CCC)[C@@H](NC(C)=O)[C@@H](OC(=O)CCC)[C@@H]1OC(=O)CCC (stereo partly drawn) [compound 1, 2-Acetylamino-2-deoxy-1,3,4,6-tetra-O-butanoyl-α,β-D-mannopyranoside]
fold lower concentration for endogenous p21WAF1/Cip1 gene activation than sodium n-butyrate (5) (p21WAF1): ~10 ×
endogenous p21WAF1 levels (p21WAF1; one week, 1 at 250 μM, 5 at 2.5 mM): increased p21^WAF1 levels
morphological changes / differentiation of HeLa cells (HeLa cells; 3 days, 1 at 250 μM, 5 at 5.0 mM): induced differentiation of HeLa cells; also recorded: growth of extended processes
fold lower concentration for cellular responses than sodium n-butyrate (HeLa cells; HeLa cells): ~20 ×
apoptosis / toxicity in AD293 cells (AD293 (HEK) cells; 2 days, 1 at 250 μM, 5 at 5.0 mM): considerable degree of apoptosis; also recorded: toxicity
fold lower concentration for cellular responses than sodium n-butyrate (AD293 (HEK) cells; AD293 cells): ~20 ×
reduced cell viability in trypan blue assay (Jurkat cells): exhibited reduced cell viability
